Legend:
[1] = target: T1, Sodium-dependent dopamine transporter (Homo sapiens, UniProt Q01959); assay: GPCRScan assay: inhibition of DAT; parameters: radioligand conc. used [nm] 3.6 – 16.0, parental cells stable HEK
[2] = target: Cyclin-dependent kinase-like 1 (Homo sapiens) (UniProt Q00532); settings: Compound concentration 1000.0 nM
[3] = target: MAP kinase-activated protein kinase 2 (Homo sapiens) (UniProt P49137); settings: Compound concentration 1000.0 nM
[4] = target: T1, Sodium-dependent dopamine transporter; assay: DATRANS/HUM Cerep selectivity data (BI); settings: Compound concentration 20.0 uM
Homo sapiens = species on record: Homo sapiens; assay: HIV-1/H Cerep selectivity data (BI); settings: Compound concentration 20.0 uM
[5] = target: Nociceptin receptor (Homo sapiens) (UniProt P41146); assay: ORL1/H Cerep selectivity data (BI); settings: Compound concentration 20.0 uM
[6] = target: Vasoactive intestinal polypeptide receptor 1 (Homo sapiens) (UniProt P32241); assay: VIP1/VPAC1/H Cerep selectivity data (BI); settings: Compound concentration 20.0 uM
[7] = target: Cyclin-dependent kinase 7 (Homo sapiens) (UniProt P50613); assay: CDK7CYCLIN Invitrogen selectivity data (BI); settings: Compound concentration 3.0 uM
[8] = target: Casein kinase II subunit alpha' (Homo sapiens) (UniProt P19784); assay: CSNK2A2 Invitrogen selectivity data (BI); settings: Compound concentration 3.0 uM
[9] = target: Dual specificity tyrosine-phosphorylation-regulated kinase 1B (Homo sapiens) (UniProt Q9Y463); assay: DYRK1B Invitrogen selectivity data (BI); settings: Compound concentration 3.0 uM
[10] = target: Epidermal growth factor receptor (Homo sapiens) (UniProt P00533); assay: EGFR Invitrogen selectivity data (BI); settings: Compound concentration 3.0 uM
[11] = target: Insulin receptor (Homo sapiens) (UniProt P06213); assay: INSR Invitrogen selectivity data (BI); settings: Compound concentration 3.0 uM
[12] = test system: Mast/stem cell growth factor receptor Kit (Homo sapiens), P10721 [V654A]; assay: KIT_V654A Invitrogen selectivity data (BI); settings: Compound concentration 3.0 uM
[13] = target: Mitogen-activated protein kinase kinase kinase 8 (Homo sapiens) (UniProt P41279); assay: MAP3K8 Invitrogen selectivity data (BI); settings: Compound concentration 3.0 uM
[14] = target: Mitogen-activated protein kinase 1 (Homo sapiens) (UniProt P28482); assay: MAPK1 Invitrogen selectivity data (BI); settings: Compound concentration 3.0 uM
[15] = target: T2, Muscle, skeletal receptor tyrosine-protein kinase (Homo sapiens) (UniProt O15146); assay: MUSK Invitrogen selectivity data (BI); settings: Compound concentration 3.0 uM
T2 sequence (whole entry): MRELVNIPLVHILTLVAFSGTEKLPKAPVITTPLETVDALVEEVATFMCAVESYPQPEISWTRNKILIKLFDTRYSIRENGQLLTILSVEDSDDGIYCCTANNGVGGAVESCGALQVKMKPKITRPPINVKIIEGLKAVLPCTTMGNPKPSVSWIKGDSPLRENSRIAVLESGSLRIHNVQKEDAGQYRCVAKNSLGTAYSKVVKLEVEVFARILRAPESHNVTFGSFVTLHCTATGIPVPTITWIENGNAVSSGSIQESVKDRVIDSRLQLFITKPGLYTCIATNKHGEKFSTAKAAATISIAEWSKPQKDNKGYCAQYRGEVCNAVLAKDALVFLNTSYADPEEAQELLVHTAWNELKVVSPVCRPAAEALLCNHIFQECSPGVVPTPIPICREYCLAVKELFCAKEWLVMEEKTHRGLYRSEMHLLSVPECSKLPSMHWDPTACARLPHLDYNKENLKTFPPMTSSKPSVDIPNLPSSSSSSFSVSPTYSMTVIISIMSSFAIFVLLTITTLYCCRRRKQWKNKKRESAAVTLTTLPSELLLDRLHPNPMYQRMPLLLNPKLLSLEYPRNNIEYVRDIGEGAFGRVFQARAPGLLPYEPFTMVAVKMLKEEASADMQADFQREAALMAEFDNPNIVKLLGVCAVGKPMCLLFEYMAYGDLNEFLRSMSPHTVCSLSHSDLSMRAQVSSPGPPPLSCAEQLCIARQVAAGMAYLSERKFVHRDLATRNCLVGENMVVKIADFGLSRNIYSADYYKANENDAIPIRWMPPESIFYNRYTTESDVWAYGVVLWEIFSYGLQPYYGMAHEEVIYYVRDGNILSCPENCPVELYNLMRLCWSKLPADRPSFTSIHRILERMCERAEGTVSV

[16] = target: T3, Protein kinase C iota type (Homo sapiens) (UniProt P41743); assay: PRKCI Invitrogen selectivity data (BI); settings: Compound concentration 3.0 uM
T3 sequence (whole entry): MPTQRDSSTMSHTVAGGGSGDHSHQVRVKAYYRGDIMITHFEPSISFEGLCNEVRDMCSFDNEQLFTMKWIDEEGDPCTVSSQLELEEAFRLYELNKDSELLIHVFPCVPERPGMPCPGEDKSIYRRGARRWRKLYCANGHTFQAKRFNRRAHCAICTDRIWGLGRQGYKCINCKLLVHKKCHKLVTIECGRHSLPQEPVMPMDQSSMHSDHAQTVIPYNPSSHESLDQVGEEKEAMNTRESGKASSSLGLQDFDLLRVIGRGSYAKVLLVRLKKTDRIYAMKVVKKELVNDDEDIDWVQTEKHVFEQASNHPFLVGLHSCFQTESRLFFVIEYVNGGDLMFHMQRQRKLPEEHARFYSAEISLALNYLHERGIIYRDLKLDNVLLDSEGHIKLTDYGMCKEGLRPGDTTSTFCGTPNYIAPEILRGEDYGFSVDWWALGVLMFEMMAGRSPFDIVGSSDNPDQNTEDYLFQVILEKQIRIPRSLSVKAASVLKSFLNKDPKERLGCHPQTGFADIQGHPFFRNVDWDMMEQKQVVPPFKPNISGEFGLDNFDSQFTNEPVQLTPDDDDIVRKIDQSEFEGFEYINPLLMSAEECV

[17] = target: Focal adhesion kinase 1 (Homo sapiens) (UniProt Q05397); assay: PTK2 Invitrogen selectivity data (BI); settings: Compound concentration 3.0 uM
[18] = target: Ribosomal protein S6 kinase alpha-1 (Homo sapiens) (UniProt Q15418); assay: RPS6KA1 Invitrogen selectivity data (BI); settings: Compound concentration 3.0 uM
[19] = target: Ribosomal protein S6 kinase beta-1 (Homo sapiens) (UniProt P23443); assay: RPS6KB1 Invitrogen selectivity data (BI); settings: Compound concentration 3.0 uM
[20] = target: T4, Serine/threonine-protein kinase 4 (Homo sapiens) (UniProt Q13043); assay: STK4 Invitrogen selectivity data (BI); settings: Compound concentration 3.0 uM
T4 sequence (whole entry): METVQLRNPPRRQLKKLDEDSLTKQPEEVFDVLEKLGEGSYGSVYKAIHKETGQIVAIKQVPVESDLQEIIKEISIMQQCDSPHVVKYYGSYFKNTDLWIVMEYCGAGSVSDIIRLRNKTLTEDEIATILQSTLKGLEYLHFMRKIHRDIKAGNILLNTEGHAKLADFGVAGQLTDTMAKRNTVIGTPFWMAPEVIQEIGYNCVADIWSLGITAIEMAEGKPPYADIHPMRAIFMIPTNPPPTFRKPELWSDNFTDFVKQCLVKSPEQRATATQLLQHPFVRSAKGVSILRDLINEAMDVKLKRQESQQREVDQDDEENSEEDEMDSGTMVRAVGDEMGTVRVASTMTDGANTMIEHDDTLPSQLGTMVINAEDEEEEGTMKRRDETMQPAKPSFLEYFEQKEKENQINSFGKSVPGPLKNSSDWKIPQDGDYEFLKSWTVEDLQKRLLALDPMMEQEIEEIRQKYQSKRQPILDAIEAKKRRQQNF

T1 sequence (Q01959 whole entry): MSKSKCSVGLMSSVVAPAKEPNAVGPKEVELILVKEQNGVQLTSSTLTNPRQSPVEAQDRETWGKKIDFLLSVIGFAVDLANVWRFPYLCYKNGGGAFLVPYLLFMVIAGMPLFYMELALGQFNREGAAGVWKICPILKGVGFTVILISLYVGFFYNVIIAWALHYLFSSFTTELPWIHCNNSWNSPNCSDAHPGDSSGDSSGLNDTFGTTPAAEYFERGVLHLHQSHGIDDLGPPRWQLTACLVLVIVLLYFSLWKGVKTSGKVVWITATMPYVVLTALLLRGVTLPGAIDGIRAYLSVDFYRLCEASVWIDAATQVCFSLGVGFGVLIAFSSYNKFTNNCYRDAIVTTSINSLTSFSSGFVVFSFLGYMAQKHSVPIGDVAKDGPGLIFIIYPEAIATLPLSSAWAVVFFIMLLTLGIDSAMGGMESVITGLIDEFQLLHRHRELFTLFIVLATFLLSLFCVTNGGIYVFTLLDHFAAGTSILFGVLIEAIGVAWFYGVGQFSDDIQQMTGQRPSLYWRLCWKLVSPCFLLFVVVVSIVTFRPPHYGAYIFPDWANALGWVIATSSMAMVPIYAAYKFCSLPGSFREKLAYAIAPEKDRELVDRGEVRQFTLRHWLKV
Sequence of MAP kinase-activated protein kinase 2 (Homo sapiens) (P49137 whole entry, looked up): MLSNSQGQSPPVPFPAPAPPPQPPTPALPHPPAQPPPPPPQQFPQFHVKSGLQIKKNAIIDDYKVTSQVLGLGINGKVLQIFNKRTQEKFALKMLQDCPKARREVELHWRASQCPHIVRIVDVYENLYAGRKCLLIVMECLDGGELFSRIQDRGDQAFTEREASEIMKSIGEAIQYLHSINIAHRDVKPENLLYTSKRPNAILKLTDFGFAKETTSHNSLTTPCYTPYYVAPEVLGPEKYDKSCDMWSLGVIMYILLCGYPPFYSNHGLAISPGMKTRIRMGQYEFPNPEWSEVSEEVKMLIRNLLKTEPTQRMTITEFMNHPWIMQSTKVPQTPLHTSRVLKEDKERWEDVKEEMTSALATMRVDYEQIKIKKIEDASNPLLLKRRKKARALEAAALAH
Sequence of Focal adhesion kinase 1 (Homo sapiens) (Q05397 2-1052 limits assumed): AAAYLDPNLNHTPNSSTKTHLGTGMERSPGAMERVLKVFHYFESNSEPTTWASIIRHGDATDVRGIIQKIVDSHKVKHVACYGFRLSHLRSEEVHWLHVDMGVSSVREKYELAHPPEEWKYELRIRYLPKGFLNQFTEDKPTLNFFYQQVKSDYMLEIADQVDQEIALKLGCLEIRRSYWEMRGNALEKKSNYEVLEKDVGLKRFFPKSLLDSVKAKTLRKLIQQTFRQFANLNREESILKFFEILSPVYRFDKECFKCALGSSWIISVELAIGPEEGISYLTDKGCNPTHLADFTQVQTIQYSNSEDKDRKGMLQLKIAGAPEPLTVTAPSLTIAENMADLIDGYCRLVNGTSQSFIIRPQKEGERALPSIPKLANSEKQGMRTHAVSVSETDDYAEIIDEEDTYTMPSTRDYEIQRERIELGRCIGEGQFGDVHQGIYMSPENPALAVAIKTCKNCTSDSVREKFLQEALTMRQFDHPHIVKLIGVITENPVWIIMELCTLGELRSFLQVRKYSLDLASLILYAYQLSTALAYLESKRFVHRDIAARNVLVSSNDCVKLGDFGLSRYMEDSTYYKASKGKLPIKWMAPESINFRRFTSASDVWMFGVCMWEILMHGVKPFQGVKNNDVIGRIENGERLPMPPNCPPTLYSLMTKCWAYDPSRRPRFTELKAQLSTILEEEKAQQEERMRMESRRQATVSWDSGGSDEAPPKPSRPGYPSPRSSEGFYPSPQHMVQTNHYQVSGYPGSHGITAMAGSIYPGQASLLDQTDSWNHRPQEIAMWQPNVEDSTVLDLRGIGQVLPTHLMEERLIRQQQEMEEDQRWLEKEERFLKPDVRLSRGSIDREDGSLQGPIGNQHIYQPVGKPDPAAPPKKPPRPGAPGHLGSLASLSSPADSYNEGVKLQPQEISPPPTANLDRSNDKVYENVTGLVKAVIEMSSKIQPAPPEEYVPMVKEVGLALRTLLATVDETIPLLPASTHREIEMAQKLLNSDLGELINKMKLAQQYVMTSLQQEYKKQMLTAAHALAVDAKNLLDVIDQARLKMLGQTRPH
Sequence of Ribosomal protein S6 kinase alpha-1 (Homo sapiens) (Q15418 whole entry): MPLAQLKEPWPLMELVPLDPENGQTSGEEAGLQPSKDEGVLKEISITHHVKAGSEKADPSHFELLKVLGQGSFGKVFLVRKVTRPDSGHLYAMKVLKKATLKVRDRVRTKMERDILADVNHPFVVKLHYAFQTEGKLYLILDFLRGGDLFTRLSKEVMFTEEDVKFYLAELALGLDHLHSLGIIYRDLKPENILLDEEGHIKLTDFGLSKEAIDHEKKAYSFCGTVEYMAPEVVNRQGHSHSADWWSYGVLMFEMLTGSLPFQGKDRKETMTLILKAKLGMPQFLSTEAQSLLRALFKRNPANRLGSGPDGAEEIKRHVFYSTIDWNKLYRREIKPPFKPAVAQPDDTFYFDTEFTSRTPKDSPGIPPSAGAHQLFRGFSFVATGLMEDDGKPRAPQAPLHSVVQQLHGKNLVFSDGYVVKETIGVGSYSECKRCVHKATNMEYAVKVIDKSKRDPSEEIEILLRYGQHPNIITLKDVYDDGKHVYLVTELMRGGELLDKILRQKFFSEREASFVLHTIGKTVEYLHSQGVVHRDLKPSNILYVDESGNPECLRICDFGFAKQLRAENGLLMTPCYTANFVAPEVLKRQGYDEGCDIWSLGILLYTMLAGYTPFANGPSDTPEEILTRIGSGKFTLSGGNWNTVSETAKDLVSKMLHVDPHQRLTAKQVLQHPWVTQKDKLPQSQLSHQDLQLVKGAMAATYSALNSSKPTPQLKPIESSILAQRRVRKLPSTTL
Sequence of Dual specificity tyrosine-phosphorylation-regulated kinase 1B (Homo sapiens) (Q9Y463 whole entry, looked up): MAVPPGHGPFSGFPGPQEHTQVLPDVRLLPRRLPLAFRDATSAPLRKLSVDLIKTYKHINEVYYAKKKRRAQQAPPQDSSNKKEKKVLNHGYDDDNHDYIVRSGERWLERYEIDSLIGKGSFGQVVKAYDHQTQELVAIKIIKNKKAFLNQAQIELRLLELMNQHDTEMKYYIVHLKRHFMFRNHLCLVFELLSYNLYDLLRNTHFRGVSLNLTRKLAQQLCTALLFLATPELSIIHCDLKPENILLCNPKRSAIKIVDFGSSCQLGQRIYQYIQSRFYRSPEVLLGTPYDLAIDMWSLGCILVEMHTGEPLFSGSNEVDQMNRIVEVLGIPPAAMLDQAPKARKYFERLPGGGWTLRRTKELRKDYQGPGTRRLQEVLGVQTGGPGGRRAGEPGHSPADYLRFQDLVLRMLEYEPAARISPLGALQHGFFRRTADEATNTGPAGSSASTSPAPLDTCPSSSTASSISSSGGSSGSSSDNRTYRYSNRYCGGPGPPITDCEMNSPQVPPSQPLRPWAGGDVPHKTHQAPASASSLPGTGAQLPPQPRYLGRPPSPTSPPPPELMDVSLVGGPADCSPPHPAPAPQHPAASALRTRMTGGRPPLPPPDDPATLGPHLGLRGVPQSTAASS
Sequence of Casein kinase II subunit alpha' (Homo sapiens) (P19784 whole entry, looked up): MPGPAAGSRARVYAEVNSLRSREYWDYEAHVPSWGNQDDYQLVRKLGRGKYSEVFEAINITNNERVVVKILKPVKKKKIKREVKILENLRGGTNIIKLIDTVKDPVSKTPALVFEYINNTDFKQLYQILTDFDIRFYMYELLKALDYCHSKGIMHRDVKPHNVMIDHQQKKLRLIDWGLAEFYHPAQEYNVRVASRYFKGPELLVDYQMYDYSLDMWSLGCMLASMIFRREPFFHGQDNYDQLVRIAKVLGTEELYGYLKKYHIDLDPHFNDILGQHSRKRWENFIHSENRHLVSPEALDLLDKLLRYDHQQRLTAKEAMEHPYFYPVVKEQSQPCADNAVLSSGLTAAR
Sequence of Ribosomal protein S6 kinase beta-1 (Homo sapiens) (P23443 whole entry, looked up): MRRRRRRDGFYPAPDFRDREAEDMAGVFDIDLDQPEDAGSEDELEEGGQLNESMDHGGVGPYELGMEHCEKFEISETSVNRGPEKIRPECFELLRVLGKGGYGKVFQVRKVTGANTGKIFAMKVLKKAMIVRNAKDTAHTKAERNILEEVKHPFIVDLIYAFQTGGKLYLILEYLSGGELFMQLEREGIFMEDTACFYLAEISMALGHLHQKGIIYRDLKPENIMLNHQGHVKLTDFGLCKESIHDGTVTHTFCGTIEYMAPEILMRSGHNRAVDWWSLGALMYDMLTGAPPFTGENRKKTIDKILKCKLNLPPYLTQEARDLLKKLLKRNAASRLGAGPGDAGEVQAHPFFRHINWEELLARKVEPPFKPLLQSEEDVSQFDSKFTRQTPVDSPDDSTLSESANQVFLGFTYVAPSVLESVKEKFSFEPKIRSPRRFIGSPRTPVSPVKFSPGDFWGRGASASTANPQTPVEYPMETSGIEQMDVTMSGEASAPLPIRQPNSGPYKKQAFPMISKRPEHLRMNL
Sequence of Nociceptin receptor (Homo sapiens) (P41146 whole entry): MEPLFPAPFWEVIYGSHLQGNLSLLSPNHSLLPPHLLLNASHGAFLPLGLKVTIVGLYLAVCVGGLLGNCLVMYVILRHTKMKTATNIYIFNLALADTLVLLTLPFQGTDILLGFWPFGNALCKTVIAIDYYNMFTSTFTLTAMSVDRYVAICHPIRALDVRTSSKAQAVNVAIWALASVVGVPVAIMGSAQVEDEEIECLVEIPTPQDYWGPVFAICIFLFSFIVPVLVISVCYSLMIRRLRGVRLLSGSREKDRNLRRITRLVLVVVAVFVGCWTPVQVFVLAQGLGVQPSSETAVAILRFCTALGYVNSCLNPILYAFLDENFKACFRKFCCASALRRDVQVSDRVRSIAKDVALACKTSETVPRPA
Sequence of Cyclin-dependent kinase 7 (Homo sapiens) (P50613 whole entry): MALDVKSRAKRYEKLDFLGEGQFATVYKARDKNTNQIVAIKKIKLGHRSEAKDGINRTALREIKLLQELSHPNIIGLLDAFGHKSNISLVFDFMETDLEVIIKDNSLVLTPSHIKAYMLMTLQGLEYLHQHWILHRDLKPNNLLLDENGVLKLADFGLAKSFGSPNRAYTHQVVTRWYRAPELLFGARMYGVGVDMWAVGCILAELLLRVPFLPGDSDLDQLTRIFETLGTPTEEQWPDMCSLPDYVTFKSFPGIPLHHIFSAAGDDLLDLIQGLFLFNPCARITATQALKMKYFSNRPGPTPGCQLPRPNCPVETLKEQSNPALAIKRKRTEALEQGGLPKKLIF

CN(C)C(=O)Cn1cc(-c2nc(C3(c4ccc(-c5cnc(N)nc5)cc4)CC3)no2)cn1 [BI 0153]
inactive: residual activity [2] 100% | residual activity [3] 99%
0.794 µM: Ki ([1]; read-out: pKi (converted))
0.855 µM: Ki ([1]; read-out: Ki)

CN(C)C(=O)Cn1cc(-c2nc([C@@](C)(c3ccc(-c4cnc(N)nc4)cc3)C3CC3)no2)cn1 [BI 665915]
inactive: residual activity [4] 87% | residual activity (Homo sapiens) 100% | residual activity [5] 91% | residual activity [6] 109% | residual activity [7] 100% | residual activity [8] 94.5% | residual activity [9] 104% | residual activity [10] 104% | residual activity [11] 100% | residual activity [12] 95% | residual activity [13] 93.5% | residual activity [14] 100% | residual activity [15] 97.5% | residual activity [16] 97% | residual activity [17] 87.5% | residual activity [18] 96% | residual activity [19] 97.5% | residual activity [20] 99%

Source: ChEMBL document CHEMBL4507276 (2021)
